# System: Streptococcus
# Assay: In vitro antibacterial activity against Streptococcus
# Assay type: functional
row,Compound,MIC
1,CC(=O)NC[C@H]1CN(c2ccc(N3CCN(S(=O)(=O)c4ccc(N)cc4)CC3)c(F)c2)C(=O)O1,16 µg/mL
2,CC(=O)NC[C@H]1CN(c2ccc(N3CCN(S(=O)(=O)c4ccccc4NC(C)=O)CC3)c(F)c2)C(=O)O1,> 64 µg/mL
3,CC(=O)NC[C@H]1CN(c2ccc(N3CCN(S(C)(=O)=O)CC3)c(F)c2)C(=O)O1,4 µg/mL
4,CC(=O)NC[C@H]1CN(c2ccc(N3CCN(S(=O)(=O)c4ccccc4)CC3)c(F)c2)C(=O)O1,4 µg/mL
5,CC(=O)NC[C@H]1CN(c2ccc(N3CCN(S(=O)(=O)c4cccc(N)c4)CC3)c(F)c2)C(=O)O1,1 µg/mL
6,CC(=O)NC[C@H]1CN(c2ccc(N3CCN(S(=O)(=O)c4ccc(C)cc4)CC3)c(F)c2)C(=O)O1,128 µg/mL
7,COc1ccc(S(=O)(=O)N2CCN(c3ccc(N4C[C@H](CNC(C)=O)OC4=O)cc3F)CC2)cc1,16 µg/mL
8,CC(=O)NC[C@H]1CN(c2ccc(N3CCOCC3)c(F)c2)C(=O)O1 [LINEZOLID],2 µg/mL
9,CC(=O)NC[C@H]1CN(c2ccc(N3CCN(S(=O)(=O)c4ccc(Br)cc4)CC3)c(F)c2)C(=O)O1,> 128 µg/mL
10,CC(=O)NC[C@H]1CN(c2ccc(N3CCN(S(=O)(=O)c4ccc([N+](=O)[O-])cc4)CC3)c(F)c2)C(=O)O1,128 µg/mL
11,CC(=O)NC[C@H]1CN(c2ccc(N3CCN(S(=O)(=O)c4cccs4)CC3)c(F)c2)C(=O)O1,4 µg/mL
12,CC(=O)NC[C@H]1CN(c2ccc(N3CCN(S(=O)(=O)c4cccc([N+](=O)[O-])c4)CC3)c(F)c2)C(=O)O1,4 µg/mL
13,CC(=O)NC[C@H]1CN(c2ccc(N3CCN(S(=O)(=O)c4cccc(NC(C)=O)c4)CC3)c(F)c2)C(=O)O1,> 128 µg/mL
14,CC(=O)NC[C@H]1CN(c2ccc(N3CCN(S(=O)(=O)c4ccc(NC(C)=O)cc4)CC3)c(F)c2)C(=O)O1,32 µg/mL
15,CC(=O)NC[C@H]1CN(c2ccc(N3CCN(S(=O)(=O)c4ccccc4[N+](=O)[O-])CC3)c(F)c2)C(=O)O1,8 µg/mL
16,CC(=O)NC[C@H]1CN(c2ccc(N3CCN(S(=O)(=O)c4ccccc4N)CC3)c(F)c2)C(=O)O1,2 µg/mL

# System: Staphylococcus epidermidis
# Assay: In vitro antibacterial activity against Staphylococcus epidermidis
# Assay type: functional
row,Compound,MIC
1,CC(=O)NC[C@H]1CN(c2ccc(N3CCN(S(=O)(=O)c4ccc(N)cc4)CC3)c(F)c2)C(=O)O1,0.25 µg/mL
2,CC(=O)NC[C@H]1CN(c2ccc(N3CCN(S(=O)(=O)c4ccccc4NC(C)=O)CC3)c(F)c2)C(=O)O1,> 64 µg/mL
3,CC(=O)NC[C@H]1CN(c2ccc(N3CCN(S(C)(=O)=O)CC3)c(F)c2)C(=O)O1,0.5 µg/mL
4,CC(=O)NC[C@H]1CN(c2ccc(N3CCN(S(=O)(=O)c4ccccc4)CC3)c(F)c2)C(=O)O1,0.25 µg/mL
5,CC(=O)NC[C@H]1CN(c2ccc(N3CCN(S(=O)(=O)c4cccc(N)c4)CC3)c(F)c2)C(=O)O1,0.25 µg/mL
6,CC(=O)NC[C@H]1CN(c2ccc(N3CCN(S(=O)(=O)c4ccc(C)cc4)CC3)c(F)c2)C(=O)O1,4 µg/mL
7,COc1ccc(S(=O)(=O)N2CCN(c3ccc(N4C[C@H](CNC(C)=O)OC4=O)cc3F)CC2)cc1,0.5 µg/mL
8,CC(=O)NC[C@H]1CN(c2ccc(N3CCOCC3)c(F)c2)C(=O)O1 [LINEZOLID],0.5 µg/mL
9,CC(=O)NC[C@H]1CN(c2ccc(N3CCN(S(=O)(=O)c4ccc(Br)cc4)CC3)c(F)c2)C(=O)O1,128 µg/mL
10,CC(=O)NC[C@H]1CN(c2ccc(N3CCN(S(=O)(=O)c4ccc([N+](=O)[O-])cc4)CC3)c(F)c2)C(=O)O1,8 µg/mL
11,CC(=O)NC[C@H]1CN(c2ccc(N3CCN(S(=O)(=O)c4cccs4)CC3)c(F)c2)C(=O)O1,4 µg/mL
12,CC(=O)NC[C@H]1CN(c2ccc(N3CCN(S(=O)(=O)c4cccc([N+](=O)[O-])c4)CC3)c(F)c2)C(=O)O1,0.25 µg/mL
13,CC(=O)NC[C@H]1CN(c2ccc(N3CCN(S(=O)(=O)c4cccc(NC(C)=O)c4)CC3)c(F)c2)C(=O)O1,> 128 µg/mL
14,CC(=O)NC[C@H]1CN(c2ccc(N3CCN(S(=O)(=O)c4ccc(NC(C)=O)cc4)CC3)c(F)c2)C(=O)O1,1 µg/mL
15,CC(=O)NC[C@H]1CN(c2ccc(N3CCN(S(=O)(=O)c4ccccc4[N+](=O)[O-])CC3)c(F)c2)C(=O)O1,4 µg/mL
16,CC(=O)NC[C@H]1CN(c2ccc(N3CCN(S(=O)(=O)c4ccccc4N)CC3)c(F)c2)C(=O)O1,4 µg/mL

# System: Streptococcus pneumoniae
# Assay: In vitro antibacterial activity against Streptococcus pneumoniae
# Assay type: functional
row,Compound,MIC
1,CC(=O)NC[C@H]1CN(c2ccc(N3CCN(S(=O)(=O)c4ccc(N)cc4)CC3)c(F)c2)C(=O)O1,16 µg/mL
2,CC(=O)NC[C@H]1CN(c2ccc(N3CCN(S(=O)(=O)c4ccccc4NC(C)=O)CC3)c(F)c2)C(=O)O1,> 64 µg/mL
3,CC(=O)NC[C@H]1CN(c2ccc(N3CCN(S(C)(=O)=O)CC3)c(F)c2)C(=O)O1,2 µg/mL
4,CC(=O)NC[C@H]1CN(c2ccc(N3CCN(S(=O)(=O)c4ccccc4)CC3)c(F)c2)C(=O)O1,2 µg/mL
5,CC(=O)NC[C@H]1CN(c2ccc(N3CCN(S(=O)(=O)c4cccc(N)c4)CC3)c(F)c2)C(=O)O1,1 µg/mL
6,CC(=O)NC[C@H]1CN(c2ccc(N3CCN(S(=O)(=O)c4ccc(C)cc4)CC3)c(F)c2)C(=O)O1,> 128 µg/mL
7,COc1ccc(S(=O)(=O)N2CCN(c3ccc(N4C[C@H](CNC(C)=O)OC4=O)cc3F)CC2)cc1,8 µg/mL
8,CC(=O)NC[C@H]1CN(c2ccc(N3CCN(S(=O)(=O)c4ccc(Br)cc4)CC3)c(F)c2)C(=O)O1,> 128 µg/mL
9,CC(=O)NC[C@H]1CN(c2ccc(N3CCN(S(=O)(=O)c4ccc([N+](=O)[O-])cc4)CC3)c(F)c2)C(=O)O1,128 µg/mL
10,CC(=O)NC[C@H]1CN(c2ccc(N3CCN(S(=O)(=O)c4cccs4)CC3)c(F)c2)C(=O)O1,4 µg/mL
11,CC(=O)NC[C@H]1CN(c2ccc(N3CCN(S(=O)(=O)c4cccc([N+](=O)[O-])c4)CC3)c(F)c2)C(=O)O1,1 µg/mL
12,CC(=O)NC[C@H]1CN(c2ccc(N3CCN(S(=O)(=O)c4cccc(NC(C)=O)c4)CC3)c(F)c2)C(=O)O1,> 128 µg/mL
13,CC(=O)NC[C@H]1CN(c2ccc(N3CCN(S(=O)(=O)c4ccc(NC(C)=O)cc4)CC3)c(F)c2)C(=O)O1,32 µg/mL
14,CC(=O)NC[C@H]1CN(c2ccc(N3CCN(S(=O)(=O)c4ccccc4[N+](=O)[O-])CC3)c(F)c2)C(=O)O1,8 µg/mL
15,CC(=O)NC[C@H]1CN(c2ccc(N3CCN(S(=O)(=O)c4ccccc4N)CC3)c(F)c2)C(=O)O1,2 µg/mL

# System: Staphylococcus hominis
# Assay: In vitro antibacterial activity against Staphylococcus hominis
# Assay type: functional
row,Compound,MIC
1,CC(=O)NC[C@H]1CN(c2ccc(N3CCN(S(=O)(=O)c4ccc(N)cc4)CC3)c(F)c2)C(=O)O1,0.25 µg/mL
2,CC(=O)NC[C@H]1CN(c2ccc(N3CCN(S(=O)(=O)c4ccccc4NC(C)=O)CC3)c(F)c2)C(=O)O1,> 64 µg/mL
3,CC(=O)NC[C@H]1CN(c2ccc(N3CCN(S(C)(=O)=O)CC3)c(F)c2)C(=O)O1,2 µg/mL
4,CC(=O)NC[C@H]1CN(c2ccc(N3CCN(S(=O)(=O)c4ccccc4)CC3)c(F)c2)C(=O)O1,1 µg/mL
5,CC(=O)NC[C@H]1CN(c2ccc(N3CCN(S(=O)(=O)c4cccc(N)c4)CC3)c(F)c2)C(=O)O1,0.25 µg/mL
6,CC(=O)NC[C@H]1CN(c2ccc(N3CCN(S(=O)(=O)c4ccc(C)cc4)CC3)c(F)c2)C(=O)O1,64 µg/mL
7,COc1ccc(S(=O)(=O)N2CCN(c3ccc(N4C[C@H](CNC(C)=O)OC4=O)cc3F)CC2)cc1,2 µg/mL
8,CC(=O)NC[C@H]1CN(c2ccc(N3CCOCC3)c(F)c2)C(=O)O1 [LINEZOLID],1 µg/mL
9,CC(=O)NC[C@H]1CN(c2ccc(N3CCN(S(=O)(=O)c4ccc(Br)cc4)CC3)c(F)c2)C(=O)O1,> 128 µg/mL
10,CC(=O)NC[C@H]1CN(c2ccc(N3CCN(S(=O)(=O)c4ccc([N+](=O)[O-])cc4)CC3)c(F)c2)C(=O)O1,32 µg/mL
11,CC(=O)NC[C@H]1CN(c2ccc(N3CCN(S(=O)(=O)c4cccc([N+](=O)[O-])c4)CC3)c(F)c2)C(=O)O1,0.5 µg/mL
12,CC(=O)NC[C@H]1CN(c2ccc(N3CCN(S(=O)(=O)c4cccc(NC(C)=O)c4)CC3)c(F)c2)C(=O)O1,> 128 µg/mL
13,CC(=O)NC[C@H]1CN(c2ccc(N3CCN(S(=O)(=O)c4ccc(NC(C)=O)cc4)CC3)c(F)c2)C(=O)O1,4 µg/mL

# System: Staphylococcus aureus
# Assay: In vitro antibacterial activity against Staphylococcus aureus
# Assay type: functional
row,Compound,MIC
1,CC(=O)NC[C@H]1CN(c2ccc(N3CCN(S(=O)(=O)c4ccc(N)cc4)CC3)c(F)c2)C(=O)O1,16 µg/mL
2,CC(=O)NC[C@H]1CN(c2ccc(N3CCN(S(=O)(=O)c4ccccc4NC(C)=O)CC3)c(F)c2)C(=O)O1,> 64 µg/mL
3,CC(=O)NC[C@H]1CN(c2ccc(N3CCN(S(C)(=O)=O)CC3)c(F)c2)C(=O)O1,4 µg/mL
4,CC(=O)NC[C@H]1CN(c2ccc(N3CCN(S(=O)(=O)c4ccccc4)CC3)c(F)c2)C(=O)O1,4 µg/mL
5,CC(=O)NC[C@H]1CN(c2ccc(N3CCN(S(=O)(=O)c4cccc(N)c4)CC3)c(F)c2)C(=O)O1,0.5 µg/mL
6,CC(=O)NC[C@H]1CN(c2ccc(N3CCN(S(=O)(=O)c4ccc(C)cc4)CC3)c(F)c2)C(=O)O1,128 µg/mL
7,COc1ccc(S(=O)(=O)N2CCN(c3ccc(N4C[C@H](CNC(C)=O)OC4=O)cc3F)CC2)cc1,16 µg/mL
8,CC(=O)NC[C@H]1CN(c2ccc(N3CCN(S(=O)(=O)c4ccc(Br)cc4)CC3)c(F)c2)C(=O)O1,> 128 µg/mL
9,CC(=O)NC[C@H]1CN(c2ccc(N3CCN(S(=O)(=O)c4ccc([N+](=O)[O-])cc4)CC3)c(F)c2)C(=O)O1,128 µg/mL
10,CC(=O)NC[C@H]1CN(c2ccc(N3CCN(S(=O)(=O)c4cccs4)CC3)c(F)c2)C(=O)O1,16 µg/mL
11,CC(=O)NC[C@H]1CN(c2ccc(N3CCN(S(=O)(=O)c4cccc([N+](=O)[O-])c4)CC3)c(F)c2)C(=O)O1,4 µg/mL
12,CC(=O)NC[C@H]1CN(c2ccc(N3CCN(S(=O)(=O)c4cccc(NC(C)=O)c4)CC3)c(F)c2)C(=O)O1,> 128 µg/mL
13,CC(=O)NC[C@H]1CN(c2ccc(N3CCN(S(=O)(=O)c4ccc(NC(C)=O)cc4)CC3)c(F)c2)C(=O)O1,32 µg/mL
14,CC(=O)NC[C@H]1CN(c2ccc(N3CCN(S(=O)(=O)c4ccccc4[N+](=O)[O-])CC3)c(F)c2)C(=O)O1,8 µg/mL
15,CC(=O)NC[C@H]1CN(c2ccc(N3CCN(S(=O)(=O)c4ccccc4N)CC3)c(F)c2)C(=O)O1,8 µg/mL
